Reference: PubChem BioAssay (NCI)
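Grown in 96-well plates, cells were treated for 48 hours with each compound at five concentrations. Insufficient inhibition: endpoint recorded as highest concentration tested. TGI is the concentration that stops growth completely.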

Key:
Test in all cases: NCI tumour cell line growth inhibition, 48 h
DLD-1 colon = system: DLD-1 colon
DMS 114 small cell lung = system: DMS 114 small cell lung
RXF-631 renal = system: RXF-631 renal
HOP-18 NSCLC = system: HOP-18 NSCLC
DMS 273 small cell lung = system: DMS 273 small cell lung
KM20L2 colon = system: KM20L2 colon
SNB-78 CNS = system: SNB-78 CNS
XF 498 CNS = system: XF 498 CNS
P388 leukemia = system: P388 leukemia
P388/ADR leukemia = system: P388/ADR leukemia
SN12K1 renal = system: SN12K1 renal

SMILES	TGI (DLD-1 colon) [µM]	TGI (DMS 114 small cell lung) [µM]	TGI (RXF-631 renal) [µM]	TGI (HOP-18 NSCLC) [µM]	TGI (DMS 273 small cell lung) [µM]	TGI (KM20L2 colon) [µM]	TGI (SNB-78 CNS) [µM]	TGI (XF 498 CNS) [µM]	TGI (P388 leukemia) [µM]	TGI (P388/ADR leukemia) [µM]	TGI (SN12K1 renal) [µM]
CN(C)c1ccc(/C=C(\C#N)C(=O)c2ccccc2)cc1Br	> 100	> 100	> 100	> 100	> 100	> 100	> 100	> 100	–	–	–
CC(C)c1cccc(C(C)C)c1NC(=O)/C(Cc1nc2ccc(Cl)cc2[nH]c1=O)=N\NC(=O)C[N+](C)(C)C	> 100	> 100	> 100	–	–	> 100	–	–	–	–	–
CC(=O)Nc1ccc(S(=O)(=O)Nc2cnc3ccccc3n2)cc1	> 100	> 100	–	> 100	> 100	> 100	–	> 100	–	–	–
O=C1C2Cc3ccccc3CN2C(=O)N1CN1CCCCC1 (stereo not drawn)	> 100	> 100	–	–	> 100	> 100	–	> 100	–	–	–
CCOC1=C2N=C(C(CC)c3ccc(F)cc3)N=C2C(=O)c2ccccc21 (stereo not drawn)	> 30.4	> 68.4	–	–	> 72.1	50.7	89.8	40.1	–	–	–
COC(=O)C12CCC(CC1=O)C2(C)C (stereo not drawn)	> 100	> 100	–	> 100	> 100	> 100	–	> 100	–	–	–
CC(C)C(N=C1CC2CCC1(C(=O)Nc1ccccc1O)C2(C)C)c1ccccc1 (stereo not drawn)	> 10	> 10	> 10	> 10	> 10	> 10	> 10	> 10	–	–	–
C#CCN1C(=O)CN2C(Cl)(Cl)C2(c2ccccc2)c2cc(Cl)ccc21 (stereo not drawn)	> 100	> 100	–	> 100	> 100	> 100	–	–	–	–	–
O=C(C#Cc1ccccc1)Nc1ccccc1CC(c1c[nH]c2ccccc12)c1c[nH]c2ccccc12	> 100	–	74.6	–	38.8	–	97.6	70	–	–	–
COc1ccc(/C=N/NC(=O)NCCNCCO)cc1	> 100	> 100	–	> 100	> 100	> 100	> 100	–	–	–	–
CCN(CC)CCNC(=O)C1COc2ccc(-c3cc(=O)c4ccccc4o3)cc2O1 (stereo not drawn)	> 77.7	–	–	46.7	42.3	39	38.6	37.3	21.7	37.1	31.1
CCC(/C(=N/NC(=O)C[N+](C)(C)C)c1ccccc1)C1OC(=O)c2ccccc21 (stereo not drawn)	–	> 100	> 100	–	> 100	> 100	> 100	> 100	–	–	–
N#Cc1cc([N+](=O)[O-])ccc1NC(=O)C(=O)Nn1c(=S)[nH]c2ccccc2c1=O	> 100	–	> 100	> 100	–	> 100	> 100	> 100	–	–	–
Cc1nc2cc3[nH]c4ccccc4c(=O)c3cc2s1	–	> 100	–	> 100	> 100	> 100	> 100	> 100	–	–	–
Nc1nc2c(nnn2C2C=C(CO)C(O)C2O)c(=O)[nH]1 (stereo not drawn)	> 100	> 100	–	> 100	> 100	> 100	> 100	> 100	–	–	–
CCN1CC2(CO)CCC(OC)C34C5CC6C(OC)CC(O)(C5C6OC)C(O)(C(OC)C23)C14 (stereo not drawn)	> 59.4	> 375	–	> 375	> 375	> 375	> 375	> 375	> 174	> 80.8	> 375
